According to US20050053916A1, “Diagnostic for long term response of HBV carrier to 3TC therapy” (priority 2002, published 2005):
Values joined by “and” are separate entries in the source; they are usually repeats but may differ in a detail not shown here. Equal entries are not always repeated. “Also recorded” adds a separate entry of the source.

Legend:
HBV [1] = conditions: after 16 weeks or more of treatment; HBeAg positive candidates; cited from earlier work
HBV [2] = test: Virological response (serum HBV DNA, HBV Monitor PCR) in chronic hepatitis B patients on long-term lamivudine therapy; assay type: in vivo, human; conditions: for virologic breakthrough observed, number of patients: of 12 breakthrough patients
From the text: (§1) All patients had detectable HBV DNA by polymerase chain reaction (PCR) assay (HBV Monitor, Roche Diagnostics, Inc.) and by solution hybridization assay (Abbott Diagnostics, Inc.) at baseline and for at least 6 months before therapy. […] Patients were negative for hepatitis C, hepatitis D, or human immunodeficiency virus antibodies, and there were no evidences of autoimmune hepatitis.
(§2) All patients were followed with monthly clinical examination and routine laboratory tests.
Serum HBV DNA for the evaluation of response to treatment was analyzed by the HBV Monitor™ assay (Roche Diagnostic, Inc.) with a detection limit of 100 copies/ml, and a solution hybridization assay (Abbott Laboratories, Inc.) with a detection limit of 10 pg/ml.
(§3) Definitions—“Responder” patients were classified as attaining both a biochemical and virological response: normalization of ALT values and the absence of serum HBV DNA by Monitor™ PCR in two consecutive determinations during treatment. “Breakthrough” was defined as those patients in who HBV DNA reappeared by Monitor™ PCR assay after an initial antiviral response (serum HBV DNA negative by Monitor™ PCR), eventually associated with an increase of ALT levels greater than 1.5× the upper limit of normal (35 IU/L).

[3] = test system: serum alanine transaminase (ALT); test: Biochemical response (serum ALT) in chronic hepatitis B patients on long-term lamivudine therapy; assay type: in vivo, human; conditions: for No. of patients with ALT elevation / No. of patients with Sustained ALT Normalization: outcome summary
Description: as §1, with “hepatitis. None of the patients were treated with interferon or other antiviral agents, such as famciclovir or adefovir dipovoxil, during the study or within six months before the beginning of lamivudine treatment.” for “hepatitis.”
as §2
Blood test—An aliquot of serum was collected at each visit and stored at −70° C. until used for analysis.
HBV serologic markers were tested by commercial enzyme immunoassay kits: HBeAg and anti-HBeAg (DiaSorin, Italy), and HBsAg (Abbott Laboratories, Inc.). Serum samples were also evaluated for routine biochemical markers of liver disease, including ALT.
as §3

[4] = after a minimum of 27 months of therapy, 26 patients
[5] = individual breakthrough (BK) patients, row order Pt #4, 5, 8, 10, 12, 13, 16, 17, 19, 20, 24, 26, 27-53 months of treatment
[6] = individual non-responder (NR) patients, row order Pt #3, 6, 9, 11, 15, 21, 22, 33-47 months of treatment

Question: Which “individuals who lose serum HBeAg” value (HBV [1]) does the source give for interferon-alpha here?
Answer: about 40%

Question: Which “virologic breakthrough observed, number of patients” value (HBV [2]; after 12 months of therapy) does the source give for `Nc1ccn([C@@H]2CS[C@H](CO)O2)c(=O)n1` [lamivudine] here?
Answer: 6 patients

Question: And the “patients who were breakthroughs” value (HBV [2]; [4])?
Answer: 46%

Question: What about the “patients who were non-responders” value (HBV [2]; [4]) of the same molecule?
Answer: 27%

Question: What about the “patients who were responders” value (HBV [2]; [4]) of the same molecule?
Answer: 27%

Question: What about the “virologic breakthrough observed, number of patients” value (HBV [2]; between 12 and 18 months of therapy) of the same molecule?
Answer: 5 patients

Question: And the “patients in whom HBV DNA became undetectable” value (HBV [2]; by week 24 of treatment, 19 of 26 patients, lamivudine orally 100 mg daily)?
Answer: 73%

Question: And the “HBV DNA (log10/ml), treatment (last follow up)” value (“HBV DNA (log10/ml), treatment” below) (HBV [2]; [5])?
Answer: 5.00 log10/ml and 5.31 log10/ml and 5.17 log10/ml and 6.20 log10/ml and 5.67 log10/ml and 6.62 log10/ml and 5.88 log10/ml and 4.54 log10/ml and 6.08 log10/ml and 7.02 log10/ml and 6.18 log10/ml

Question: And the “HBV DNA (log10/ml), treatment” value (HBV [2]; [6])?
Answer: 4.25 log10/ml and 4.55 log10/ml and 6.11 log10/ml (2×) and 7.28 log10/ml and 5.19 log10/ml and 6.19 log10/ml

Question: What about the “HBV DNA (log10/ml), treatment” value (HBV [2]; individual responder (R) patients, row order Pt #1, 2, 7, 14, 18, 23, 25, 27-50 months of treatment) of the same molecule?
Answer: ud* (undetectable, limit of detection 1000 copies/ml); also recorded: ud (undetectable, limit of detection 1000 copies/ml)

Question: And the “No. of Patients (%), Breakthrough” value (HBV [2]; outcome summary (26 pts))?
Answer: 12 (46%)

Question: What about the “No. of Patients (%), Non-responder” value (HBV [2]; outcome summary (26 pts)) of the same molecule?
Answer: 7 (27%)

Question: And the “No. of Patients (%), Responder” value (HBV [2]; outcome summary (26 pts))?
Answer: 7 (27%)

Question: What about the “patients in whom serum ALT normalized” value ([3]; by week 24 of treatment, 13 of 26 patients, lamivudine orally 100 mg daily) of the same molecule?
Answer: 50%

Question: And the “ALT (IU/L), treatment (last follow up)” value [3, 5]?
Answer: 9 IU/L (2×) and 5 IU/L (3×) and 21 IU/L and 75 IU/L and 81 IU/L and 51 IU/L and 80 IU/L and 2 IU/L and 4 IU/L

Question: And the “ALT (IU/L), treatment (last follow up)” value [3, 6]?
Answer: 68 IU/L and 37 IU/L and 4 IU/L (2×) and 66 IU/L and 74 IU/L and 85 IU/L

Question: And the “ALT (IU/L), treatment (last follow up)” value ([3]; individual responder (R) patients, row order Pt #1, 2, 7, 14, 18, 23, 25, 27-50 months of treatment, upper limit of normal 35 IU/L)?
Answer: 30 IU/L and 24 IU/L (2×) and 20 IU/L and 18 IU/L and 21 IU/L and 16 IU/L

Question: What about the “No. of patients with ALT elevation” value ([3]; Breakthrough group (12 pts)) of the same molecule?
Answer: 5

Question: What about the “No. of patients with Sustained ALT Normalization” value ([3]; Breakthrough group (12 pts)) of the same molecule?
Answer: 7

Question: What about the “No. of patients with ALT elevation” value ([3]; Non-responder group (7 pts)) of the same molecule?
Answer: 7

Question: What about the “No. of patients with Sustained ALT Normalization” value ([3]; Non-responder group (7 pts)) of the same molecule?
Answer: 0

Question: And the “No. of patients with ALT elevation” value ([3]; Responder group (7 pts))?
Answer: 7

Question: And the “No. of patients with Sustained ALT Normalization” value ([3]; Responder group (7 pts))?
Answer: 0
